Measured values as given in patent US11261201B2 (priority 2018, dated 2022).
Values after ≈ are worked out from the molar mass of the structure shown. Counter-ions that a name gives are not always drawn. Like-named read-outs stand apart in the source and are kept apart here.

Tests used:
H37RvMA = experiment: Tuberculosis Alamar Blue/Resazurin assay (MIC); assay type: cell-based; settings: Mycobacterium tuberculosis, H37RV, read-out: WT H37Rv MTB Activity
E. coli = experiment: Gram negative MIC protocol (OD600, LB, 24 h); settings: Escherichia coli
Method: (§1) Overnight bacterial cultures were grown in LB with no added antibiotics at 37° C. with shaking. A 1:1000 dilution of these cultures into LB was exposed to concentration gradients of compounds in 96-well plates (100 μL per well assay volume). Resulting plates were incubated at 37° C. for 24 h without shaking, and OD600 was measured at the end of the incubation. MICs were determined as the lowest concentrations at which OD600 remained at baseline.

A. baumannii = experiment: Gram negative MIC protocol (OD600, LB, 24 h); settings: Acinetobacter baumannii
Method: as §1

[1] = read-out: MIC E. coli delta-TolC LB Media, E. coli delta-TolC strain, LB media, 24 h, OD600
[2] = read-out: MIC WT E. coli LB Media, wild-type E. coli, LB media, 24 h, OD600
[3] = read-out: MIC A. baumannii LB Media, A. baumannii, LB media, 24 h, OD600
[4] = read-out: MIC E. coli delta-TolC LB Media, E. coli delta-TolC, LB media, OD600
[5] = read-out: MIC WT E. coli LB Media, WT E. coli, LB media, OD600
[6] = read-out: MIC A. baumannii LB Media

Compound	MIC (H37RvMA; WT H37Rv MTB) [µM]	MIC (E. coli; [1]) [µM]	MIC (E. coli; [2]) [µM]	MIC (A. baumannii; [3]) [µM]	MIC (E. coli; [4]) [µM]	MIC (E. coli; [5]) [µM]	MIC (H37RvMA) [µM]	MIC (A. baumannii; [6]) [µM]
CC(=O)Oc1ccccc1CNCCC1CCCCC1 [B256, 2-((2-cyclohexylethylamino)methyl)phenyl acetate]	> 150	150	> 150	> 150				
Cc1ccc(CNCCC2=CCCCC2)cc1 [B10, 2-(cyclohex-1-en-1-yl)-N-(4-methylbenzyl)ethan-1-amine]	> 150			> 150	> 150	> 150		
CC1=C(C)CC(CC(C)NCc2ccccc2)CC1 (centres unmarked) [B162, N-benzyl-1-(3,4-dimethylcyclohex-3-en-1-yl)propan-2-amine]	> 150			> 150	300 (≈ 77.2 µg/mL)	> 500		
NC(=O)C(CC1CCCCC1)NCc1ccccc1 (centres unmarked) [B205, 2-(benzylamino)-3-cyclohexylpropanamide hydrochloride]	> 150	> 300	> 300	> 300				
CC1CCCC(CCN2Cc3ccccc3CC2=O)C1 (centres unmarked) [B464, 2-(2-(3-methylcyclohexyl)ethyl)-1,4-dihydroisoquinolin-3(2H)-one]	2 (≈ 0.543 µg/mL)			> 150	90 (≈ 24.4 µg/mL)	> 150		
c1ccc(CNCCC2CCCCO2)cc1 (centres unmarked) [B222]	> 150	> 150	> 300	> 300				
c1ccc(CNCCN2CCC3(CCCCC3)CC2)cc1 [B121]	> 150			> 150	> 150	> 150		
Cc1nnc(COc2ccccc2CNC(C)CC2CCCCC2)o1 (centres unmarked) [B279]	> 150	12 (≈ 4.12 µg/mL)	> 150	> 150				
CC(CC1CCCCC1)N1Cc2ccccc2CC1=O (centres unmarked) [B412, 2-(1-cyclohexylpropan-2-yl)-1,4-dihydroisoquinolin-3(2H)-one]	7.4 (≈ 2.01 µg/mL)			> 150	55 (≈ 14.9 µg/mL)	> 150		
CC(CC1CCC1)NCc1ccccc1 (centres unmarked) [B33]					> 150	> 150	> 150	> 150
CC1(C)Cc2cccc(CCNCc3ccccc3)c2O1 [B108]					> 150	> 150	> 150	> 150
c1ccc(CNCC2CCOc3ccccc32)cc1 (centres unmarked) [B23]	> 150			> 150	> 150	> 150		
CCCCCCNCc1ccccc1 [B6]	> 150			> 150	> 150	> 150		
CC(CC1CCCCC1)NCc1ccccc1OC1C2CC3CC(C2)CC1C3 [B404, N-(2-(((1R,3S,5r,7r)-adamantan-2-yl)oxy)benzyl)-1-cyclohexylpropan-2-amine]	20.2 (≈ 7.71 µg/mL)			150 (≈ 57.2 µg/mL)	7 (≈ 2.67 µg/mL)	> 150		
CCCC(C)NCc1ccccc1 (centres unmarked) [B16]	> 150			> 150	> 150	> 150		
c1ccc(CNCC2C3CC4CC(C3)CC2C4)cc1 (centres unmarked) [B59]	33 (≈ 8.43 µg/mL)			> 150	> 150	> 150		
C1=C(CCNCCc2ccccc2)CCCC1 [B151]				> 150	> 150	> 150	> 150	
Fc1ccc(CNCCC2=CCCCC2)cc1 [B14]	> 150			> 150	> 150	> 150		
c1ccc(CNCCN2CC3CCC(C2)O3)cc1 [B64]				> 150	> 150	> 150	> 150	
CC(C)NC(=O)COc1ccccc1CNC(C)CC1CCCCC1 (centres unmarked) [B358]	> 150	20 (≈ 6.93 µg/mL)	> 150	> 150				
CC(CC1CCCCC1)NCc1ccccc1OCC(=O)N1CCNC1=O (centres unmarked) [B347]	> 150	4 (≈ 1.49 µg/mL)	150 (≈ 56 µg/mL)	> 150				
O=C(O)c1ccccc1CNCCC1CCCCC1 [B257, 2-((2-cyclohexylethylamino)methyl)benzoic acid hydrochloride]	> 150	67	> 150	> 150				
CC(CC1CCCCC1)NCc1ccccc1O (centres unmarked) [B319]		12 (≈ 2.97 µg/mL)	33 (≈ 8.16 µg/mL)				150 (≈ 37.1 µg/mL)	> 150
COCc1cccc(CNCCC2CCCCC2)c1 [B350]	> 150	> 150	> 150	> 150				
c1ccc(CNCCC23CCCCC2C3)cc1 (centres unmarked) [B182]	91 (≈ 20.9 µg/mL)			> 300	> 300	> 300		
c1csc(-c2ccccc2CNCCC2CCCCC2)c1 [B230, 2-cyclohexyl-N-(2-(thiophen-2-yl)benzyl)ethanamine hydrochloride]	55	4	96	96				
